Assay results published in publication PMC6934184, “Selective DNA-PKcs inhibition extends the therapeutic index of localized radiotherapy and chemotherapy” (The Journal of Clinical Investigation, 2019).

Biological target: T1, DAPK2 (Homo sapiens, UniProt Q9UIK4)
T1 construct: purchased Thermo Fisher Scientific (Life Technologies) SelectScreen
Assay: SelectScreen LanthaScreen
Type: binding
Conditions: read-out: % displacement
In short: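 Percent values come from Thermo SelectScreen profiling of NU5455, combining activity and binding assays. CSF1R was run in Z'LYTE format at Km app ATP, and CAMK1 in Adapta format with ATP listed at 10.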

T1 sequence (Q9UIK4 whole entry): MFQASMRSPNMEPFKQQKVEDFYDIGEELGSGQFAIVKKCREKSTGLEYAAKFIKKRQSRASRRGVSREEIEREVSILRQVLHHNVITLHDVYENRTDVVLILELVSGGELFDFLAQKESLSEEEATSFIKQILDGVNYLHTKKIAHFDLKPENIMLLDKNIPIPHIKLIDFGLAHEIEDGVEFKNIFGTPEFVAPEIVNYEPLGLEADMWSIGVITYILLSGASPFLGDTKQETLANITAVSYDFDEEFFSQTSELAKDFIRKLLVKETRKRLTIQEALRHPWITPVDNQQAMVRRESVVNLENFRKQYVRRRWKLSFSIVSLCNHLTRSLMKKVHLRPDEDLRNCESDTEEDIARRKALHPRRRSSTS

## CN(C(=O)CN1CCOCC1)c1ccc2sc3c(-c4cccc5c(=O)cc(N6CC7CCC(C6)O7)oc45)cccc3c2c1 [NU5455]
  inhibition at 1 µM: 2.9%
